Consider 38 compounds from US7291641B2, “Derivatives of heterocycles with 5 members, their preparation and their use as medicaments” (Societe de Conseils de Recherches et d'Applications …, priority 1999, dated 2007).

One may read the melting point as the temperature of the solid-liquid transition.

Molecules are shown by their SMILES. Where a name gives a salt, the structure may show the parent alone.

Compound `CCCCOC(=O)NCCc1nc(-c2ccc(-c3ccc(C)cc3)cc2)c[nH]1` [Example 394, butyl 2-[4-(4′-methyl-1,1′-biphenyl-4-yl)-1H-imidazol-2-yl]ethylcarbamate] had a melting point of 168.4 °C.
As for `Fc1cccc(-c2c[nH]c([C@@H](NC3CCC3)C3CCCCC3)n2)c1` [Example 87, N-{(S)-cyclohexyl[4-(3-fluorophenyl)-1H-imidazol-2-yl]methyl}-cyclobutanamine], the figure is 172 to 176 °C.
For `CC(C)(C)OC(=O)N[C@H](Cc1c[nH]c2ccccc12)c1nc(-c2ccc([N+](=O)[O-])cc2)c[nH]1` [Example 102, tert-butyl (1R)-2-(1H-indol-3-yl)-1-[4-(4-nitrophenyl)-1H-imidazol-2-yl]-ethylcarbamate] the value was 220 to 222 °C; for `FC(F)(F)c1cc(-c2c[nH]c([C@@H](NC3CCCCC3)C3CCCCC3)n2)cc(C(F)(F)F)c1` [Example 284, N-[(S)-{4-[3,5-bis(trifluoromethyl)phenyl]-1H-imidazol-2-yl}(cyclohexyl)methyl]cyclohexanamine], 180 to 182 °C; for `CC(C)(C)COC(=O)NCCc1nc(-c2ccc(-c3ccccc3)cc2)c[nH]1` [Example 203, 4-[2-(2-{[(neopentyloxy)carbonyl]amino}ethyl)-1H-imidazol-4-yl]-1,1′-biphenyl], 162 to 164 °C.
Turning to `O=C(NCCc1nc(-c2ccc(-c3ccc(Br)cc3)cc2)c[nH]1)OCC1CCC1` (as salt: hydrochloride) [Example 337, cyclobutylmethyl 2-[4-(4′-bromo-1,1′-biphenyl-4-yl)-1H-imidazol-2-yl]ethylcarbamate], the melting point fell in the range of 214 to 215 °C.
Turning to `c1ccc(OCCN[C@H](Cc2c[nH]c3ccccc23)c2nc(-c3ccccc3)c[nH]2)cc1` [Example 108, (1R)-2-(1H-indol-3-yl)-N-(2-phenoxyethyl)-1-(4-phenyl-1H-imidazol-2-yl)ethanamine], the melting point lay in the range of 94 to 96 °C.
For `CCCCS(=O)(=O)NCCc1nc(-c2ccc(-c3ccccc3)cc2)c[nH]1` [Example 33, N-[2-(4-[1,1′-biphenyl]-4-yl-1H-imidazol-2-yl)ethyl]-1-butanesulphonamide] the value was 168.5 °C; for `CCCOC(=O)NCCc1nc(-c2ccc(-c3ccccc3)cc2)c[nH]1` [Example 245, 4-(2-{2-[(propoxycarbonyl)amino]ethyl}-1H-imidazol-4-yl)-1,1′-biphenyl], 141.2 °C.
`CCCCOC(=O)NCCc1nc(-c2ccc(-c3ccccc3)cc2)c(CC)[nH]1` [Example 453, butyl 2-[4-(1,1′-biphenyl-4-yl)-5-ethyl-1H-imidazol-2-yl]ethylcarbamate] came in with a melting point of 127 to 128 °C.
`O=C(NCCc1nc(-c2ccc(N3CCCC3)cc2)c[nH]1)OCC1CCCCC1` [Example 326, cyclohexylmethyl 2-[4-(4-pyrrolidin-1-ylphenyl)-1H-imidazol-2-yl]ethylcarbamate] displayed a melting point of 128.5 °C.
For `NCCCCCCc1nc(-c2ccccc2)c[nH]1` (as salt: hydrochloride) [Example 180, 6-(4-phenyl-1H-imidazol-2-yl)hexylamine] the value was 244 to 246 °C; for `Fc1ccc(-c2c[nH]c([C@H](NCC3CCCCC3)C3CCCCC3)n2)cc1` (as salt: hydrochloride) [Example 318, (R)-1-cyclohexyl-N-(cyclohexylmethyl)-1-[4-(4-fluorophenyl)-1H-imidazol-2-yl]methanamine], 188.2 °C.
As for `CCCCCCOC(=O)NCCc1nc(-c2ccc(-c3ccccc3)cc2)c[nH]1` [Example 255, hexyl 2-(4-[1,1′-biphenyl]-4-yl-1H-imidazol-2-yl)ethylcarbamate], the figure is 116.5 to 116.8 °C; as for `FC(F)(F)c1cccc(-c2c[nH]c([C@@H](NCC3CCCCC3)C3CCCCC3)n2)c1` (as salt: hydrochloride) [Example 307, (S)-1-cyclohexyl-N-(cyclohexylmethyl)-1-{4-[3-(trifluoromethyl)-phenyl]-1H-imidazol-2-yl}methanamine], 198 to 200 °C.
The compound `CCCCCCC(NC1CCCCC1)c1nc(-c2ccc(-c3ccccc3)cc2)c[nH]1` (racemic) (as salt: hydrochloride) [Example 252, (R,S)-N-[1-(4-[1,1′-biphenyl]-4-yl-1H-imidazol-2-yl)heptyl]-cyclohexanamine] yielded a melting point of 168 to 170 °C.
As for `CCCCCCC(NC(=O)OC(C)(C)C)c1nc(-c2ccccc2OC)c[nH]1` (racemic) [Example 183, tert-butyl (R,S)-1-[4-(2-methoxyphenyl)-1H-imidazol-2-yl]heptylcarbamate], the figure is 64 to 65 °C.
For `CCCCCCC(N)c1nc(-c2ccccc2Cl)c[nH]1` (racemic) (as salt: hydrochloride) [Example 221, (R,S)-1-[4-(2-chlorophenyl)-1H-imidazol-2-yl]-1-heptanamine] the value was 138 to 140 °C; for `CCCCCCC(N)c1nc(-c2cccc(OC)c2)c[nH]1` (racemic) (as salt: hydrochloride) [Example 69, (R,S)-1-[4-(3-methoxyphenyl)-1H-imidazol-2-yl]heptylamine], 110 to 112 °C; for `c1ccc(CN[C@H](CC2CCCCC2)c2nc(-c3ccccc3)c[nH]2)cc1` [Example 134, (1R)-N-benzyl-2-cyclohexyl-1-(4-phenyl-1H-imidazol-2-yl)ethanamine], 52 to 54 °C.
As for `O=C(NCCc1nc(-c2ccc(N3CCCC3)cc2)c[nH]1)OCCCC(F)(F)F` [Example 385, 4,4,4-trifluorobutyl 2-[4-(4-pyrrolidin-1-ylphenyl)-1H-imidazol-2-yl]ethylcarbamate], the figure is 148.3 °C; as for `CC(C)(C)OC(=O)N[C@H](CCc1ccccc1)c1nc(-c2ccccc2)c[nH]1` [Example 129, tert-butyl (1R)-3-phenyl-1-(4-phenyl-1H-imidazol-2-yl)propylcarbamate], 72 to 74 °C; as for `c1ccc(-c2c[nH]c([C@@H](Cc3c[nH]c4ccccc34)Nc3ncccn3)n2)cc1` [Example 44, N-[(1R)-2-(1H-indol-3-yl)-1-(4-phenyl-1H-imidazol-2-yl)ethyl]-2-pyrimidinamine], 138 to 140 °C.
`CCCCCCC(NCC1CCCCC1)c1nc(-c2ccccc2)c[nH]1` (racemic) (as salt: hydrochloride) [Example 263, (R,S) N-(cyclohexylmethyl)-1-(4-phenyl-1H-imidazol-2-yl)-1-heptanamine]: the melting point lay within 142 to 144 °C.
In turn, `O=C(NCCc1nc(-c2ccc(-c3ccccc3)cc2)c[nH]1)OC1CCCC1` [Example 271, 4-[2-(2-{[(cyclopentyloxy)carbonyl]amino}ethyl)-1H-imidazol-4-yl]-1,1′-biphenyl] returned a melting point of 140.5 °C.
Turning to `CC(C)(C)NC(=O)NCCc1nc(-c2ccc(-c3ccccc3)cc2)c[nH]1` [Example 177, 4-[2-(2-{[(tert-butylamino)carbonyl]amino}ethyl)-1H-imidazol-4-yl]-1,1′-biphenyl], the melting point was in the range of 195 to 196 °C.
As for `Cn1cc(-c2ccc(-c3ccccc3)cc2)nc1CNC(=O)OC(C)(C)C` [Example 146, 4-(2-{[(tert-butoxycarbonyl)amino]methyl}-1-methyl-1H-imidazol-4-yl)-1,1′-biphenyl], the figure is 208 to 210 °C.
Consider `CC(C)C[C@@H](NC(=O)OC(C)(C)C)c1nc(-c2ccccc2)c[nH]1` [Example 124, tert-butyl (1R)-3-methyl-1-(4-phenyl-1H-imidazol-2-yl)butylcarbamate], for which the melting point fell in the range of 88 to 90 °C.
The compound `CC(C)(C)OC(=O)NCc1nc(-c2ccccc2)cn1Cc1ccccc1` [Example 104, tert-butyl (1-benzyl-4-phenyl-1H-imidazol-2-yl)methylcarbamate] yielded a melting point of 140 to 142 °C.
For `CCCCOC(=O)N[C@H](C)c1nc(-c2ccc(-c3ccccc3)cc2)c[nH]1` [Example 242, 4-(2-{(1R)-1-[(butoxycarbonyl)amino]ethyl}-1H-imidazol-4-yl)-1,1′-biphenyl] the value was 114 to 116 °C.
For `O=C(NCCc1nc(-c2ccc(-c3ccccc3)cc2)c[nH]1)OCC1CCC1` [Example 285, cyclobutylmethyl 2-(4-[1,1′-biphenyl]-4-yl-1H-imidazol-2-yl)ethylcarbamate] the value was 144 to 145 °C; for `CCCCOC(=O)NCCc1nc(-c2ccc(-c3ccc(SC)cc3)cc2)c[nH]1` [Example 397, butyl 2-{4-[4′-(methylthio)-1,1′-biphenyl-4-yl]-1H-imidazol-2-yl}ethylcarbamate], 167.9 °C; for `CCCCCCC(NCc1ccccc1)c1nc(-c2ccc(-c3ccccc3)cc2)c[nH]1` (racemic) [Example 195, (R,S)-N-benzyl-1-(4-[1,1′-biphenyl]-4-yl-1H-imidazol-2-yl)-1-heptanamine], 100 to 102 °C.
With `CC(C)CCC(NC1CCCCC1)c1nc(-c2ccc(F)cc2)c[nH]1` (racemic) (as salt: hydrochloride) [Example 257, (R,S)-N-{1-[4-(4-fluorophenyl)-1H-imidazol-2-yl]4-methylpentyl}-cyclohexanamine], the melting point lay in the range of 230 to 232 °C.
Consider `Brc1cccc(-c2c[nH]c([C@@H](NCC3CCCCC3)C3CCCCC3)n2)c1` (as salt: hydrochloride) [Example 306, (S)-1-[4-(3-bromophenyl)-1H-imidazol-2-yl]-1-cyclohexyl-N-(cyclohexylmethyl)methanamine], for which the melting point amounted to 206.3 °C.
`CCC[C@@H](NC(=O)OC(C)(C)C)c1nc(-c2ccccc2)c[nH]1` [Example 207, tert-butyl (1R)-1-(4-phenyl-1H-imidazol-2-yl)butylcarbamate] registered a melting point of 156 to 158 °C.
As for `CCC[C@@H](N)c1nc(-c2ccc(-c3ccccc3)cc2)c[nH]1` (as salt: hydrochloride) [Example 209, (1R)-1-(4-[1,1′-biphenyl]-4-yl-1H-imidazol-2-yl)-1-butanamine], the figure is 155.4 °C; as for `O=C(NCCc1nc(-c2ccc(F)cc2)c[nH]1)OCC1CCC1` [Example 286, cyclobutylmethyl 2-[4-(4-fluorophenyl)-1H-imidazol-2-yl]ethylcarbamate], 149 to 150 °C.
